The target of experiment [1] is T1, recombinant human ALK5 (TGF-βR1) protein (Homo sapiens, UniProt P36897).
T1 construct: purchased Life Technologies PR9075A
T1 sequence (P36897 34-503): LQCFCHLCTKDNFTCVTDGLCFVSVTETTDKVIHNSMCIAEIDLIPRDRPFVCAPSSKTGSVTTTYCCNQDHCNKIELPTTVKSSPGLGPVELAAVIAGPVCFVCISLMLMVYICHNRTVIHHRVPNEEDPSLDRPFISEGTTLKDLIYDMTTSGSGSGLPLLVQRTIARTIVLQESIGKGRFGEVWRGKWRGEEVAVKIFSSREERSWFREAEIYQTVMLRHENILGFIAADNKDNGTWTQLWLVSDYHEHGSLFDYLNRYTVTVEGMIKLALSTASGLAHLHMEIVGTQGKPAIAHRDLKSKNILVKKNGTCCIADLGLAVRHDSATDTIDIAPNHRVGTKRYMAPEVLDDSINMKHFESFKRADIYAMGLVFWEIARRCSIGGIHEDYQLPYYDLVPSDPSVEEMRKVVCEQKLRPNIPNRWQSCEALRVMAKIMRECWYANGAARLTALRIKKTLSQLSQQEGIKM
Kind of experiment: Biochemical ALK5 (TGF-βR1) assay to measure pKi (LANCE Ultra ULight kinase assay). The following applies: apparent pKi from pIC50 by Cheng-Prusoff, read-out: ALK5 pKi (converted). Summed up:
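Compounds (10 μM to 25 pM) preincubated 60 minutes at room temperature with enzyme, then reaction run 60 minutes at 37° C with ATP added as 125 μM (5× final). Stopped with EDTA plus Eu-anti-phospho-Topoisomerase 2-alpha (Thr1342) antibody, TR-FRET read at 665 nm; pIC50 converted to pKi via Cheng-Prusoff.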

The test system of experiment [2] is TGF-β-stimulated SMAD3 phosphorylation in BEAS-2B cells. As to the kind of experiment: Cellular ALK5 potency assay, inhibition of TGF-β stimulated pSMAD3 formation in BEAS-2B cells. It is filed as cell-based. The following applies: Homo sapiens; inhibition of TGF-β stimulated pSMAD3 formation, BEAS-2B cells; read-out: BEAS2B pIC50 (converted). Summed up:
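SMAD3 phosphorylation was measured by AlphaLISA after 30 min TGF-β stimulation (10 ng/mL final) of BEAS-2B cells preincubated 1 h with compound at 37 °C. Results given as pIC50.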

A value given as a limit tells only on which side of the number the result lay.

Turning to `Cc1cccc(-c2nc3ccccn3c2-c2ccc3ncc(NCCN4CCN(C(C)C)CC4)cc3c2)n1` [Compound 293, N-(2-(4-isopropylpiperazin-1-yl)ethyl)-6-(2-(6-methylpyridin-2-yl)imidazo[1,2-a]pyridin-3-yl)quinolin-3-amine], the Ki in experiment [1] was 0.0398 to 0.316 nM. In addition, in experiment [2], the IC50 was 25.1 to 158 nM.
On the same counts, the results for `Cc1cccc(-c2[nH]cnc2-c2ccc3ncc(N4CCN(C)C(CC(=O)O[C@@H]5CCNC5)C4)cc3c2)n1` (stereo partly drawn) [Compound 344, [(3R)-pyrrolidin-3-yl]2-[1-methyl-4-[6-[5-(6-methyl-2-pyridyl)-1H-imidazol-4-yl]-3-quinolyl]piperazin-2-yl]acetate] are 0.0398 to 0.316 nM and 200 to 1260 nM.
The like results for `Cc1cccc(-c2[nH]cnc2-c2ccc3ncc(-c4cncc(CN5CCNCC5)c4)cc3c2)n1` [Compound 1117, 6-[5-(6-methyl-2-pyridyl)-1H-imidazol-4-yl]-3-[5-(piperazin-1-ylmethyl)-3-pyridyl]quinoline] were, in that order, 0.0398 to 0.316 nM and 25.1 to 158 nM.
On to `Cc1cccc(-c2n[nH]cc2-c2ccc3nccc(CN(C)CCCN4CCOCC4)c3n2)n1` [Compound 853, N-methyl-N-[[6-[3-(6-methyl-2-pyridyl)-1H-pyrazol-4-yl]-1,5-naphthyridin-4-yl]methyl]-3-morpholino-propan-1-amine], for which, in experiment [1], the Ki was 0.0398 to 0.316 nM. The IC50 in experiment [2] is 25.1 to 158 nM.
For `CNC1CCN(c2cnc3ccc(-c4c(-c5cccc(C)n5)[nH]c5cccnc45)nc3c2)CC1` [Compound 328, N-methyl-1-[6-[2-(6-methyl-2-pyridyl)-1H-pyrrolo[3,2-b]pyridin-3-yl]-1,5-naphthyridin-3-yl]piperidin-4-amine], the Ki in experiment [1] is 0.398 to 3.16 nM. Moreover, in experiment [2], the IC50 was 200 to 1260 nM.
Consider `Cc1cccc(-c2[nH]cnc2-c2ccc3ncc(-c4cnn(CCN)c4)cc3c2)n1` [Compound 572, 2-[4-[6-[5-(6-methyl-2-pyridyl)-1H-imidazol-4-yl]-3-quinolyl]pyrazol-1-yl]ethanamine], for which, in experiment [1], the Ki was 0.0398 to 0.316 nM. Moreover, the IC50 in experiment [2] is 25.1 to 158 nM.
Consider `Cc1cccc(-c2nc3ccccn3c2-c2ccc3ncc(N4CCC(N5CCN(C)CC5)CC4)cc3c2)n1` [Compound 95, 3-[4-(4-methylpiperazin-1-yl)-1-piperidyl]-6-[2-(6-methyl-2-pyridyl)imidazo[1,2-a]pyridin-3-yl]quinoline], for which the Ki in experiment [1] was 0.0398 to 0.316 nM. Further, in experiment [2], the IC50 is 25.1 to 158 nM.
The like results for `Cc1nc(-c2n[nH]cc2-c2ccc3ncc(-c4cnn([C@@H]5CCC[C@@H]5N)c4)cc3n2)ccc1F` [Compound 569, (1S,2R)-2-[4-[6-[3-(5-fluoro-6-methyl-2-pyridyl)-1H-pyrazol-4-yl]-1,5-naphthyridin-3-yl]pyrazol-1-yl]cyclopentanamine] were, in that order, 0.0398 to 0.316 nM and 25.1 to 158 nM.
The like results for `Cc1nc(-c2n[nH]cc2-c2ccc3ncc(-c4nnn5c4NCC5)cc3n2)ccc1F` [Compound 520, 7-(5,6-dihydro-4H-imidazo[1,2-c]triazol-3-yl)-2-[3-(5-fluoro-6-methyl-2-pyridyl)-1H-pyrazol-4-yl]-1,5-naphthyridine] were, in that order, less than 0.0316 nM and 25.1 to 158 nM.
The like results for `Cc1cccc(-c2n[nH]cc2-c2ccc3ncc(-c4nnn5c4NCCC5)cc3n2)n1` [Compound 550, 2-[3-(6-methyl-2-pyridyl)-1H-pyrazol-4-yl]-7-(4,5,6,7-tetrahydrotriazolo[1,5-a]pyrimidin-3-yl)-1,5-naphthyridine] were, in that order, 0.0398 to 0.316 nM and 25.1 to 158 nM.
With `COC(=O)c1coc(-c2cnc3ccc(-c4c[nH]nc4-c4cccc(C)n4)nc3c2)n1` [Compound 582, methyl 2-[6-[3-(6-methyl-2-pyridyl)-1H-pyrazol-4-yl]-1,5-naphthyridin-3-yl]oxazole-4-carboxylate], the Ki in experiment [1] is less than 0.0316 nM. In experiment [2], the IC50 is 25.1 to 158 nM.
On the same counts, the results for `Cc1cccc(-c2n[nH]cc2-c2ccc3ncc(CCC(=O)N4CCOCC4)cc3n2)n1` [Compound 385, 3-[6-[3-(6-methyl-2-pyridyl)-1H-pyrazol-4-yl]-1,5-naphthyridin-3-yl]-1-morpholino-propan-1-one] are 0.398 to 3.16 nM and 25.1 to 158 nM.
The like results for `Cc1cccc(-c2n[nH]cc2-c2ccc3nccc(C(N)=O)c3n2)n1` [Compound 806, 6-[3-(6-methyl-2-pyridyl)-1H-pyrazol-4-yl]-1,5-naphthyridine-4-carboxamide] were, in that order, 0.398 to 3.16 nM and 25.1 to 158 nM.
The like results for `Cc1cccc(-c2n[nH]cc2-c2ccc3ncc(-c4nnc5n4CCNC5)cc3n2)n1` [Compound 40, 2-[3-(6-methyl-2-pyridyl)-1H-pyrazol-4-yl]-7-(5,6,7,8-tetrahydro-[1,2,4]triazolo[4,3-a]pyrazin-3-yl)-1,5-naphthyridine] were, in that order, 3.98 to 31.6 nM and 1580 to 10000 nM.
Regarding `Cc1cccc(-c2n[nH]cc2-c2ccc3ncc(Nc4ccc(N5CCN(C)CC5)cn4)cc3c2)n1` [Compound 666, N-[5-(4-methylpiperazin-1-yl)-2-pyridyl]-6-[3-(6-methyl-2-pyridyl)-1H-pyrazol-4-yl]quinolin-3-amine], in experiment [1], the Ki is 0.0398 to 0.316 nM. Further, the IC50 in experiment [2] is 25.1 to 158 nM.
On to `CNCCn1cc(-c2cnc3ccc(-c4nc[nH]c4-c4cccc(C)n4)nc3c2)cn1` [Compound 408, N-methyl-2-[4-[6-[5-(6-methyl-2-pyridyl)-1H-imidazol-4-yl]-1,5-naphthyridin-3-yl]pyrazol-1-yl]ethanamine], for which the Ki in experiment [1] is 0.0398 to 0.316 nM. Also, the IC50 in experiment [2] was 25.1 to 158 nM.
On the same counts, the results for `Cc1cccc(-c2n[nH]cc2-c2ccc3ncc(N4CCC[C@@H]4CO)cc3n2)n1` [Compound 270, [(2R)-1-[6-[3-(6-methyl-2-pyridyl)-1H-pyrazol-4-yl]-1,5-naphthyridin-3-yl]pyrrolidin-2-yl]methanol] are 0.0398 to 0.316 nM and 25.1 to 158 nM.
On the same counts, the results for `Cc1cccc(-c2[nH]cnc2-c2ccc3ncc(N4CCC(NC(=O)C5CCNCC5)CC4)cc3c2)n1` [Compound 583, N-[1-[6-[5-(6-methyl-2-pyridyl)-1H-imidazol-4-yl]-3-quinolyl]-4-piperidyl]piperidine-4-carboxamide] are 0.0398 to 0.316 nM and 1580 to 10000 nM.
The like results for `Cc1cccc(-c2n[nH]cc2-c2ccc3ncc(-c4ccc(C5CCCN(Cc6ccccc6)C5)cc4)cc3n2)n1` (stereo not shown) [Compound 251, 7-[4-(1-benzyl-3-piperidyl)phenyl]-2-[3-(6-methyl-2-pyridyl)-1H-pyrazol-4-yl]-1,5-naphthyridine] were, in that order, 0.0398 to 0.316 nM and 200 to 1260 nM.
On to `Cc1cccc(-c2n[nH]cc2-c2ccc3ncc(N4C[C@@H]5C[C@H]4CN5)cc3n2)n1` [Compound 220, 7-[(1S,4S)-2,5-diazabicyclo[2.2.1]heptan-2-yl]-2-[3-(6-methyl-2-pyridyl)-1H-pyrazol-4-yl]-1,5-naphthyridine], for which the Ki in experiment [1] is 0.398 to 3.16 nM. The IC50 in experiment [2] is 25.1 to 158 nM.
On the same counts, the results for `Cc1cccc(-c2[nH]cnc2-c2ccc3ncc(N4CC[C@H](N)C4)cc3c2)n1` [Compound 208, (3S)-1-[6-[5-(6-methyl-2-pyridyl)-1H-imidazol-4-yl]-3-quinolyl]pyrrolidin-3-amine] are 0.0398 to 0.316 nM and less than 20 nM.
The like results for `Cc1cccc(-c2[nH]ncc2-c2ccc3ncc(C(=O)O[C@H]4CCCNC4)cc3c2)n1` [Compound 1201, [(3S)-3-piperidyl] 6-[5-(6-methyl-2-pyridyl)-1H-pyrazol-4-yl]quinoline-3-carboxylate] were, in that order, 0.0398 to 0.316 nM and 25.1 to 158 nM.
On the same counts, the results for `Cc1cccc(-c2[nH]cnc2-c2ccc3ncc(-c4ccc5c(c4)C(N)CC5)cc3c2)n1` (stereo not shown) [Compound 726, 6-[6-[5-(6-methyl-2-pyridyl)-1H-imidazol-4-yl]-3-quinolyl]indan-1-amine] are less than 0.0316 nM and 25.1 to 158 nM.
Turning to `Cc1cccc(-c2[nH]cnc2-c2ccc3ncc(C(=O)OCCCN4CC5(CCNCC5)C4)cc3c2)n1` [Compound 903, 3-(2,7-diazaspiro[3.5]nonan-2-yl)propyl 6-(5-(6-methylpyridin-2-yl)-1H-imidazol-4-yl)quinoline-3-carboxylate], the Ki in experiment [1] was 0.0398 to 0.316 nM. Moreover, the IC50 in experiment [2] was 200 to 1260 nM.
On the same counts, the results for `CNCCn1cc(-c2cnc3ccc(-c4c(-c5cccc(C)n5)nnn4C)cc3c2)cn1` [Compound 628, N-methyl-2-(4-(6-(1-methyl-4-(6-methylpyridin-2-yl)-1H-1,2,3-triazol-5-yl)quinolin-3-yl)-1H-pyrazol-1-yl)ethan-1-amine] are less than 0.0316 nM and 25.1 to 158 nM.
`Cc1nc(-c2n[nH]cc2-c2ccc3ncc(-c4cccn(C)c4=O)cc3n2)ccc1F` [Compound 674, 3-[6-[3-(5-fluoro-6-methyl-2-pyridyl)-1H-pyrazol-4-yl]-1,5-naphthyridin-3-yl]-1-methyl-pyridin-2-one]: the Ki in experiment [1] was 0.0398 to 0.316 nM. Moreover, the IC50 in experiment [2] is less than 20 nM.

The record behind these values is patent US11590116B2 (THERAVANCE BIOPHARMA R&D IP, LLC, priority 2019, dated 2023).
